Measured values: the supplement of paper PMC13207355

Experiments:
Settings in all cases: exposure time: 72 h
[1] = tested on: E28 (patient-derived glioblastoma stem cells of classical subtype); assay: surviving fraction (nuclei count normalised to DMSO); higher = more cells surviving (less toxic)
[2] = tested on: E21 (patient-derived glioblastoma stem cells of mesenchymal subtype); assay: as above
[3] = tested on: E57 (patient-derived glioblastoma stem cells of mesenchymal subtype); assay: as above
[4] = tested on: E13 (patient-derived glioblastoma stem cells of classical subtype); assay: as above
[5] = tested on: E34 (patient-derived glioblastoma stem cells of proneural subtype); assay: as above
[6] = tested on: FT3469 (normal neural stem cell line); assay: as above
[7] = tested on: E31 (patient-derived glioblastoma stem cells of proneural subtype); assay: as above
[8] = tested on: E28; assay: phenotypic distance (Euclidean, principal components) from DMSO controls (arbitrary units); higher = stronger morphological change
[9] = tested on: E21; assay: as above
[10] = tested on: E57; assay: as above
[11] = tested on: E13; assay: as above
[12] = tested on: E34; assay: as above
[13] = tested on: FT3469; assay: as above
[14] = tested on: E31; assay: as above
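Throughout, for phenotypic distance (Euclidean, principal components) from DMSO controls: cell Painting imaging in 384-well plates, CellProfiler features reduced to at least 20 principal components, Euclidean distance versus same-plate DMSO vehicle wells (0.1% v/v), median over six images per well.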
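Throughout, for surviving fraction (nuclei count normalised to DMSO): nuclei counted by high-content imaging of Hoechst-stained cells in laminin-coated 384-well plates, relative to 0.1% DMSO vehicle wells, with staurosporine as cell-death control.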

C/C(=C\c1csc(C)n1)[C@@H]1C[C@@H]2O[C@]2(C)CCC[C@H](C)[C@H](O)[C@@H](C)C(=O)C(C)(C)[C@@H](O)CC(=O)N1 [Ixabepilone]
Settings | phenotypic distance | surviving fraction
[1], 4.1 nM | – | 0.611
[1], 12.3 nM | – | 0.6
[1], 37 nM | – | 0.431
[1], 111.1 nM | – | 0.464
[1], 333.3 nM | – | 0.345
[1], 1000 nM | – | 0.404
[1], 3000 nM | – | 0.237
[2], 4.1 nM | – | 0.229
[2], 12.3 nM | – | 0.256
[2], 37 nM | – | 0.211
[2], 111.1 nM | – | 0.245
[2], 333.3 nM | – | 0.286
[2], 1000 nM | – | 0.259
[2], 3000 nM | – | 0.243
[3], 4.1 nM | – | 0.172
[3], 12.3 nM | – | 0.152
[3], 37 nM | – | 0.128
[3], 111.1 nM | – | 0.0952
[3], 333.3 nM | – | 0.0774
[3], 1000 nM | – | 0.0873
[3], 3000 nM | – | 0.0627
[4], 4.1 nM | – | 0.341
[4], 12.3 nM | – | 0.286
[4], 37 nM | – | 0.271
[4], 111.1 nM | – | 0.193
[4], 333.3 nM | – | 0.21
[4], 1000 nM | – | 0.193
[4], 3000 nM | – | 0.175
[5], 4.1 nM | – | 0.609
[5], 12.3 nM | – | 0.672
[5], 37 nM | – | 0.582
[5], 111.1 nM | – | 0.531
[5], 333.3 nM | – | 0.465
[5], 1000 nM | – | 0.421
[5], 3000 nM | – | 0.331
[6], 4.1 nM | – | 0.574
[6], 12.3 nM | – | 0.624
[6], 37 nM | – | 0.63
[6], 111.1 nM | – | 0.677
[6], 333.3 nM | – | 0.521
[6], 1000 nM | – | 0.716
[6], 3000 nM | – | 0.548
[7], 4.1 nM | – | 0.269
[7], 12.3 nM | – | 0.261
[7], 37 nM | – | 0.172
[7], 111.1 nM | – | 0.149
[7], 333.3 nM | – | 0.137
[7], 1000 nM | – | 0.208
[7], 3000 nM | – | 0.157
[8], 4.1 nM | 2.8 | –
[8], 12.3 nM | 2.1 | –
[8], 37 nM | 3.6 | –
[8], 111.1 nM | 4.12 | –
[8], 333.3 nM | 4.09 | –
[8], 1000 nM | 3.46 | –
[8], 3000 nM | 4.61 | –
[9], 4.1 nM | 6.26 | –
[9], 12.3 nM | 5.66 | –
[9], 37 nM | 6.8 | –
[9], 111.1 nM | 5.59 | –
[9], 333.3 nM | 6.55 | –
[9], 1000 nM | 6.74 | –
[9], 3000 nM | 6.15 | –
[10], 4.1 nM | 6.02 | –
[10], 12.3 nM | 5.51 | –
[10], 37 nM | 5.64 | –
[10], 111.1 nM | 5.48 | –
[10], 333.3 nM | 7.37 | –
[10], 1000 nM | 6.58 | –
[10], 3000 nM | 6.89 | –
[11], 4.1 nM | 4.32 | –
[11], 12.3 nM | 5.35 | –
[11], 37 nM | 4.56 | –
[11], 111.1 nM | 5.86 | –
[11], 333.3 nM | 5.9 | –
[11], 1000 nM | 6.44 | –
[11], 3000 nM | 6.86 | –
[12], 4.1 nM | 2.35 | –
[12], 12.3 nM | 2.42 | –
[12], 37 nM | 2.65 | –
[12], 111.1 nM | 3.43 | –
[12], 333.3 nM | 3.13 | –
[12], 1000 nM | 3.44 | –
[12], 3000 nM | 4.33 | –
[13], 4.1 nM | 2.99 | –
[13], 12.3 nM | 3.28 | –
[13], 37 nM | 4.81 | –
[13], 111.1 nM | 3.58 | –
[13], 333.3 nM | 3.51 | –
[13], 1000 nM | 4.06 | –
[13], 3000 nM | 4.05 | –
[14], 4.1 nM | 2.61 | –
[14], 12.3 nM | 3.43 | –
[14], 37 nM | 3.83 | –
[14], 111.1 nM | 4.57 | –
[14], 333.3 nM | 4.48 | –
[14], 1000 nM | 4.78 | –
[14], 3000 nM | 4.08 | –

CC(C)C[C@H](NC(=O)CNC(=O)c1cc(Cl)ccc1Cl)B(O)O [Ixazomib]
Settings | phenotypic distance | surviving fraction
[1], 4.1 nM | – | 0.582
[1], 12.3 nM | – | 0.296
[1], 37 nM | – | 0.14
[1], 111.1 nM | – | 0.149
[1], 333.3 nM | – | 0.0863
[1], 1000 nM | – | 0.102
[1], 3000 nM | – | 0.0701
[2], 4.1 nM | – | 0.275
[2], 12.3 nM | – | 0.0747
[2], 37 nM | – | 0.0159
[2], 111.1 nM | – | 0.0149
[2], 333.3 nM | – | 0.0187
[2], 1000 nM | – | 0.0308
[2], 3000 nM | – | 0.00187
[3], 4.1 nM | – | 0.118
[3], 12.3 nM | – | 0.0366
[3], 37 nM | – | 0.00889
[3], 111.1 nM | – | 0.00993
[3], 333.3 nM | – | 0.00889
[3], 1000 nM | – | 0.0105
[3], 3000 nM | – | 0.00366
[4], 4.1 nM | – | 0.298
[4], 12.3 nM | – | 0.0451
[4], 37 nM | – | 0.0121
[4], 111.1 nM | – | 0.013
[4], 333.3 nM | – | 0.0174
[4], 1000 nM | – | 0.0252
[4], 3000 nM | – | 0.00174
[5], 4.1 nM | – | 0.609
[5], 12.3 nM | – | 0.423
[5], 37 nM | – | 0.163
[5], 111.1 nM | – | 0.126
[5], 333.3 nM | – | 0.0695
[5], 1000 nM | – | 0.0659
[5], 3000 nM | – | 0.0494
[6], 4.1 nM | – | 0.583
[6], 12.3 nM | – | 0.704
[6], 37 nM | – | 0.371
[6], 111.1 nM | – | 0.386
[6], 333.3 nM | – | 0.297
[6], 1000 nM | – | 0.239
[6], 3000 nM | – | 0.103
[7], 4.1 nM | – | 0.365
[7], 12.3 nM | – | 0.223
[7], 37 nM | – | 0.0335
[7], 111.1 nM | – | 0.0134
[7], 333.3 nM | – | 0.0218
[7], 1000 nM | – | 0.0402
[7], 3000 nM | – | 0.00669
[8], 4.1 nM | 2.24 | –
[8], 12.3 nM | 3.91 | –
[8], 37 nM | 4.89 | –
[8], 111.1 nM | 4.69 | –
[8], 333.3 nM | 6.98 | –
[8], 1000 nM | 6.52 | –
[8], 3000 nM | 5.85 | –
[9], 4.1 nM | 6.82 | –
[9], 12.3 nM | 7.74 | –
[9], 37 nM | 11.3 | –
[9], 111.1 nM | 9.17 | –
[9], 333.3 nM | 11.6 | –
[9], 1000 nM | 10.7 | –
[9], 3000 nM | 14.7 | –
[10], 4.1 nM | 8.41 | –
[10], 12.3 nM | 11.9 | –
[10], 37 nM | 11 | –
[10], 111.1 nM | 10.2 | –
[10], 333.3 nM | 10.1 | –
[10], 1000 nM | 9.67 | –
[10], 3000 nM | 7.76 | –
[11], 4.1 nM | 4.64 | –
[11], 12.3 nM | 9.62 | –
[11], 37 nM | 17.4 | –
[11], 111.1 nM | 10.6 | –
[11], 333.3 nM | 11.8 | –
[11], 1000 nM | 8.11 | –
[11], 3000 nM | 11.2 | –
[12], 4.1 nM | 2.17 | –
[12], 12.3 nM | 4.29 | –
[12], 37 nM | 6.54 | –
[12], 111.1 nM | 7.64 | –
[12], 333.3 nM | 9.65 | –
[12], 1000 nM | 10.2 | –
[12], 3000 nM | 10.4 | –
[13], 4.1 nM | 2.53 | –
[13], 12.3 nM | 2.8 | –
[13], 37 nM | 4.87 | –
[13], 111.1 nM | 6.47 | –
[13], 333.3 nM | 6.55 | –
[13], 1000 nM | 7.04 | –
[13], 3000 nM | 7.74 | –
[14], 4.1 nM | 3.6 | –
[14], 12.3 nM | 5.68 | –
[14], 37 nM | 7.85 | –
[14], 111.1 nM | 7.57 | –
[14], 333.3 nM | 8.35 | –
[14], 1000 nM | 9.03 | –
[14], 3000 nM | 17.2 | –
